Source: paper PMC10468942, “A Fluorescent Probe as a Lead Compound for a Selective α-Synuclein PET Tracer: Development of a Library of 2-Styrylbenzothiazoles and Biological Evaluation of [^18F]PFSB and [^18F]MFSB” (ACS Omega, 2023)
Values joined by “and” are separate entries in the source; they are usually repeats but may differ in a detail not shown here. Equal entries are not always repeated.

What follows are compounds tested against T1, Aβ1-42 fibrils (Homo sapiens, UniProt P05067) (assay: [^3H]PiB competition binding assay on Aβ fibrils). Details: Aβ1–42 fibrils.
T1 construct: Synthetic lyophilized human Aβ1-42 peptide; purchased EMC Microcollections, Tuebingen, Germany; host or cells: synthetic peptide
T1 sequence (P05067 672-713 limits assumed): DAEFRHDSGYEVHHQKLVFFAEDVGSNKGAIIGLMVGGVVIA
Procedure: Following the cloning of the DNA construct encoding full-length αSYN into the pET-22b vector and its transformation into BL21 cells, the expression of human αSYN from a prokaryotic host was induced overnight in Escherichia coli at 20 °C with 0.5 mM IPTG. The cells were harvested by centrifugation, resuspended in 20 mM Tris-HCl pH 7.6, 25 mM NaCl and 1× complete protease inhibitor (Roche, Basel, Switzerland), and lysed by sonication. […] Anion exchange chromatography (HiTrap Q, GE Healthcare, Chicago, Illinois) was used to trap the produced αSYN, which was eluted with NaCl 0.1 M over 20 column volumes. Fractions containing αSYN were concentrated and further purified through a Superdex 75 SEC column equilibrated with PBS. […] A 4 mg/mL solution of αSYN in 20 mM K3PO4 pH 9.1 was placed in an orbital shaker at 37 °C, 1000 rpm for 5 days to prepare P91s. The assemblies were either sonicated with cycles of 20 s on and 10 s off at 50% amplitude (Q800R3, Qsonica) for a total of 10 min or directly aliquoted in volumes of 10 μL each stored at −80 °C until use. The method for Aβ1-42 fibrils generation was adapted from Bagchi et al. and described in Kuebler et al.[17],[27] […] Aggregation was induced by incubation in an Eppendorf Thermomixer at 37 °C with shaking at 800 rpm for 72 h. The resulting fibrils were sonicated for 3 min in a water bath (Elmasonic S 60 H, Elma Schmidbauer GmbH, Singen, Germany). The final products were aliquoted, frozen on dry ice, and stored at −80 °C until use.
(§1) Concentrations of αSYN and Aβ1-42 fibrils were as described above.
(§2) Plates were incubated on a shaker (MaxQ 6000, Thermo Fisher Scientific, Inc., Marietta, OH) at 50 rpm for 2 h at 37 °C, covered by removable sealing tapes (PerkinElmer, Waltham, MA). Vacuum filtration and read-out were performed as previously reported.[17] […] Data points were fitted using nonlinear regression analysis in GraphPad Prism (GraphPad Software, Inc., Version 8.4.0, La Jolla).
For C(C=Cc1nc2ccccc2s1)=Cc1ccc(N2CCCCC2)cc1 [14a, 2-(4-(4-(Piperidin-1-yl)phenyl)buta-1,3-dien-1-yl)benzo[d]thiazole], the “competition with [^3H]PiB / binding to Aβ fibrils (in words)” value (from here on “competition with [^3H]PiB / binding”) was “None of the tested compounds appreciably competed against [^3H]PiB”.
With C(=Cc1nc2ccccc2s1)c1ccc(N2CCOCC2)cc1 [15a, 4-(4-(2-(Benzo[d]thiazol-2-yl)vinyl)phenyl)morpholine] the “competition with [^3H]PiB / binding” value was “None of the tested compounds appreciably competed against [^3H]PiB”.
For C(=Cc1nc2ccccc2s1)c1ccc(N2CCCC2)cc1 [17a, 2-(4-(Pyrrolidin-1-yl)styryl)benzo[d]thiazole], the “competition with [^3H]PiB / binding” value was “None of the tested compounds appreciably competed against [^3H]PiB”.

These compounds were tested against T2, αSYN fibrils (Homo sapiens, UniProt P37840) (assay: [^3H]PiB competition binding assay on αSYN fibrils). Details: Ki, αSYN [^3H]PiB competition, mean Ki ± SEM, n = 3, or single determinations.
T2 construct: cloning of the DNA construct encoding full-length αSYN into the pET-22b vector; made in house; host or cells: Escherichia coli BL21
Procedure: Following the cloning of the DNA construct encoding full-length αSYN into the pET-22b vector and its transformation into BL21 cells, the expression of human αSYN from a prokaryotic host was induced overnight in Escherichia coli at 20 °C with 0.5 mM IPTG. The cells were harvested by centrifugation, resuspended in 20 mM Tris-HCl pH 7.6, 25 mM NaCl and 1× complete protease inhibitor (Roche, Basel, Switzerland), and lysed by sonication. […] Anion exchange chromatography (HiTrap Q, GE Healthcare, Chicago, Illinois) was used to trap the produced αSYN, which was eluted with NaCl 0.1 M over 20 column volumes. Fractions containing αSYN were concentrated and further purified through a Superdex 75 SEC column equilibrated with PBS. […] A 4 mg/mL solution of αSYN in 20 mM K3PO4 pH 9.1 was placed in an orbital shaker at 37 °C, 1000 rpm for 5 days to prepare P91s. The assemblies were either sonicated with cycles of 20 s on and 10 s off at 50% amplitude (Q800R3, Qsonica) for a total of 10 min or directly aliquoted in volumes of 10 μL each stored at −80 °C until use. […] The final products were aliquoted, frozen on dry ice, and stored at −80 °C until use.
as §1, §2
C[n+]1c(C=CC=Cc2ccc(N3CCCCC3)cc2)sc2ccccc21 [14b, 3-Methyl-2-(4-(4-(piperidin-1-yl)phenyl)buta-1,3-dien-1-yl)benzo[d]thiazol-3-ium Iodide] gave a Ki of less than 20 nM.

Same assay, conditions: methylated compounds, Table 2; two values in a cell = single determinations; read-out: Ki
Cc1cccc2sc(/C=C/c3ccc(N4CCCCC4)cc3)[n+](C)c12 [1b, 3,4-Dimethyl-2-(4-(piperidin-1-yl)styryl)benzo[d]thiazol-3-ium 4-nitrobenzenesulfonate] was tested, and the Ki was 36.1 nM and 83.9 nM.
With COc1cccc2sc(C=Cc3ccc(N4CCCCC4)cc3)[n+](C)c12 [2b, 4-Methoxy-3-methyl-2-(4-(piperidin-1-yl)styryl)benzo[d]thiazol-3-ium Iodide] the Ki was 70.8 nM and 34.3 nM.
In the case of C[n+]1c(/C=C/c2ccc(N3CCCCC3)cc2)sc2cccc(F)c21 [3b, 4-Fluoro-3-methyl-2-(4-(piperidin-1-yl)styryl)benzo[d]thiazol-3-ium 4-nitrobenzenesulfonate], the Ki is reported as greater than 400 nM.
With Cc1ccc2sc(C=Cc3ccc(N4CCCCC4)cc3)[n+](C)c2c1 [4b, 3,5-Dimethyl-2-(4-(piperidin-1-yl)styryl)benzo[d]thiazol-3-ium Iodide] the Ki was 84.6 nM and 59.9 nM.
COc1ccc2sc(C=Cc3ccc(N4CCCCC4)cc3)[n+](C)c2c1 [5b, 5-Methoxy-3-methyl-2-(4-(piperidin-1-yl)styryl)benzo[d]thiazol-3-ium Iodide] was tested, and the Ki was 27.5 nM and 163 nM.
In the case of C[n+]1c(C=Cc2ccc(N3CCCCC3)cc2)sc2ccc(F)cc21 [6b, 5-Fluoro-3-methyl-2-(4-(piperidin-1-yl)styryl)benzo[d]thiazol-3-ium Iodide], the Ki is reported as 435 nM and 268 nM.
With Cc1ccc2c(c1)sc(C=Cc1ccc(N3CCCCC3)cc1)[n+]2C [7b, 3,6-Dimethyl-2-(4-(piperidin-1-yl)styryl)benzo[d]thiazol-3-ium Iodide] the Ki was 16.8 nM and 23.8 nM.
With COc1ccc2c(c1)sc(C=Cc1ccc(N3CCCCC3)cc1)[n+]2C [8b, 6-Methoxy-3-methyl-2-(4-(piperidin-1-yl)styryl)benzo[d]thiazol-3-ium Iodide] the Ki was 19.7 nM and 9.6 nM.
C[n+]1c(C=Cc2ccc(N3CCCCC3)cc2)sc2cc(F)ccc21 [9b, 6-Fluoro-3-methyl-2-(4-(piperidin-1-yl)styryl)benzo[d]thiazol-3-ium Iodide] was tested, and the Ki was 335 nM and 43.6 nM.
Cc1cccc2c1sc(C=Cc1ccc(N3CCCCC3)cc1)[n+]2C [10b, 3,7-Dimethyl-2-(4-(piperidin-1-yl)styryl)benzo[d]thiazol-3-ium Iodide] was tested, and the Ki was 231 nM and 63.9 nM.
For COc1cccc2c1sc(C=Cc1ccc(N3CCCCC3)cc1)[n+]2C [11b, 7-Methoxy-3-methyl-2-(4-(piperidin-1-yl)styryl)benzo[d]thiazol-3-ium Iodide], the Ki was 234 nM and 177 nM.
For C[n+]1c(C=Cc2ccc(N3CCCCC3)cc2)sc2c(F)cccc21 [12b, 7-Fluoro-3-methyl-2-(4-(piperidin-1-yl)styryl)benzo[d]thiazol-3-ium Iodide], the Ki was greater than 400 nM.
For C[n+]1c(-c2ccc(N3CCCCC3)cc2)sc2ccccc21 [13b, 3-Methyl-2-(4-(piperidin-1-yl)phenyl)benzo[d]thiazol-3-ium], the Ki was greater than 400 nM.
With C[n+]1c(C=CC=Cc2ccc(N3CCCCC3)cc2)sc2ccccc21 [14b, 3-Methyl-2-(4-(4-(piperidin-1-yl)phenyl)buta-1,3-dien-1-yl)benzo[d]thiazol-3-ium Iodide] the Ki was 23 nM and 16.8 nM.
C[n+]1c(/C=C/c2ccc(N3CCOCC3)cc2)sc2ccccc21 [15b, 3-Methyl-2-(4-morpholinostyryl)benzo[d]thiazol-3-ium Iodide] was tested, and the Ki was greater than 400 nM.
C[n+]1c(C=Cc2ccc(N3CCSCC3)cc2)sc2ccccc21 [16b, 3-Methyl-2-(4-thiomorpholinostyryl)benzo[d]thiazol-3-ium Iodide] was tested, and the Ki was greater than 400 nM.
C[n+]1c(C=Cc2ccc(N3CCCC3)cc2)sc2ccccc21 [17b, 3-Methyl-2-(4-(pyrrolidin-1-yl)styryl)benzo[d]thiazol-3-ium Iodide] was tested, and the Ki was 145 nM and 58.6 nM.
C[n+]1c(C=Cc2ccc(N3CCC(F)CC3)cc2)sc2ccccc21 [18b, 2-(4-(4-Fluoropiperidin-1-yl)styryl)-3-methylbenzo[d]thiazol-3-ium Iodide] gave a Ki greater than 400 nM.
CN(C)c1ccc(/C=C/c2sc3ccccc3[n+]2C)cc1 [19b, 2-(4-(Dimethylamino)styryl)-3-methylbenzo[d]thiazol-3-ium Iodide] was tested, and the Ki was greater than 400 nM.

Same assay, conditions: nonmethylated compounds, Table 1; two values in a cell = single determinations; a: mean Ki ± SEM of three data points; b: single data point; read-out: Ki
Cc1cccc2sc(C=Cc3ccc(N4CCCCC4)cc3)nc12 [1a, 4-Methyl-2-(4-(piperidin-1-yl)styryl)benzo[d]thiazole] was tested, and the Ki was 71.2 nM and 198 nM.
Work on COc1cccc2sc(C=Cc3ccc(N4CCCCC4)cc3)nc12 [2a, 4-Methoxy-2-(4-(piperidin-1-yl)styryl)benzo[d]thiazole] yielded a Ki greater than 400 nM.
With Fc1cccc2sc(C=Cc3ccc(N4CCCCC4)cc3)nc12 [3a, 4-Fluoro-2-(4-(piperidin-1-yl)styryl)benzo[d]thiazole] the Ki was 187 nM and 110 nM.
For Cc1ccc2sc(C=Cc3ccc(N4CCCCC4)cc3)nc2c1 [4a, 5-Methyl-2-(4-(piperidin-1-yl)styryl)benzo[d]thiazole], the Ki was 233 nM and 88.1 nM.
COc1ccc2sc(C=Cc3ccc(N4CCCCC4)cc3)nc2c1 [5a, 5-Methoxy-2-(4-(piperidin-1-yl)styryl)benzo[d]thiazole] was tested, and the Ki was 128 nM and 188 nM.
In the case of Fc1ccc2sc(C=Cc3ccc(N4CCCCC4)cc3)nc2c1 [6a, 5-Fluoro-2-(4-(piperidin-1-yl)styryl)benzo[d]thiazole], the Ki is reported as 169 nM and 124 nM.
With Cc1ccc2nc(C=Cc3ccc(N4CCCCC4)cc3)sc2c1 [7a, 6-Methyl-2-(4-(piperidin-1-yl)styryl)benzo[d]thiazole] the Ki was 230 nM and 218 nM.
COc1ccc2nc(C=Cc3ccc(N4CCCCC4)cc3)sc2c1 [8a, 6-Methoxy-2-(4-(piperidin-1-yl)styryl)benzo[d]thiazole] was tested, and the Ki was 110 nM and 103 nM.
Cc1cccc2nc(C=Cc3ccc(N4CCCCC4)cc3)sc12 [10a, 7-Methyl-2-(4-(piperidin-1-yl)styryl)benzo[d]thiazole] was tested, and the Ki was greater than 400 nM.
In the case of COc1cccc2nc(C=Cc3ccc(N4CCCCC4)cc3)sc12 [11a, 7-Methoxy-2-(4-(piperidin-1-yl)styryl)benzo[d]thiazole], the Ki is reported as greater than 400 nM.
For Fc1cccc2nc(C=Cc3ccc(N4CCCCC4)cc3)sc12 [12a, 7-Fluoro-2-(4-(piperidin-1-yl)styryl)benzo[d]thiazole], the Ki was 283 nM.
With C(C=Cc1nc2ccccc2s1)=Cc1ccc(N2CCCCC2)cc1 [14a, 2-(4-(4-(Piperidin-1-yl)phenyl)buta-1,3-dien-1-yl)benzo[d]thiazole] the Ki was 81.9 ± 15.6 nM.
In the case of C(=Cc1nc2ccccc2s1)c1ccc(N2CCOCC2)cc1 [15a, 4-(4-(2-(Benzo[d]thiazol-2-yl)vinyl)phenyl)morpholine], the Ki is reported as 92 ± 30.3 nM.
C(=Cc1nc2ccccc2s1)c1ccc(N2CCSCC2)cc1 [16a, 2-(4-Thiomorpholinostyryl)benzo[d]thiazole] was tested, and the Ki was 219 nM and 58.6 nM.
Compound C(=Cc1nc2ccccc2s1)c1ccc(N2CCCC2)cc1 [17a, 2-(4-(Pyrrolidin-1-yl)styryl)benzo[d]thiazole] has a Ki of 73.4 ± 19 nM.
FC1CCN(c2ccc(C=Cc3nc4ccccc4s3)cc2)CC1 [18a, 2-(4-(4-Fluoropiperidin-1-yl)styryl)benzo[d]thiazole] showed a Ki of 99.8 ± 32.6 nM.
In the case of CN(C)c1ccc(C=Cc2nc3ccccc3s2)cc1 [19a, 4-(2-(Benzo[d]thiazol-2-yl)vinyl)-N,N-dimethylaniline], the Ki is reported as greater than 400 nM.
In the case of C(=Cc1nc2ccccc2s1)c1ccc(N2CCCCC2)cc1 [compound 20, 2-(4-(Piperidin-1-yl)styryl)benzo[d]thiazole], the Ki is reported as 170 nM and 33.5 nM.
